Data: ChEMBL document CHEMBL5291721, “A preclinical secondary pharmacology resource illuminates target-adverse drug reaction associations of marketed drugs” (Nat Commun, 2023)

Assays:
[1] = biological target: Sodium-dependent dopamine transporter (Homo sapiens, UniProt Q01959)
Mu-type opioid receptor = Mu-type opioid receptor (Homo sapiens, UniProt P35372)
[2] = biological target: T1, 5-hydroxytryptamine receptor 1A (Homo sapiens, UniProt P08908); format: functional, cell-based
T1 sequence (P08908 whole entry): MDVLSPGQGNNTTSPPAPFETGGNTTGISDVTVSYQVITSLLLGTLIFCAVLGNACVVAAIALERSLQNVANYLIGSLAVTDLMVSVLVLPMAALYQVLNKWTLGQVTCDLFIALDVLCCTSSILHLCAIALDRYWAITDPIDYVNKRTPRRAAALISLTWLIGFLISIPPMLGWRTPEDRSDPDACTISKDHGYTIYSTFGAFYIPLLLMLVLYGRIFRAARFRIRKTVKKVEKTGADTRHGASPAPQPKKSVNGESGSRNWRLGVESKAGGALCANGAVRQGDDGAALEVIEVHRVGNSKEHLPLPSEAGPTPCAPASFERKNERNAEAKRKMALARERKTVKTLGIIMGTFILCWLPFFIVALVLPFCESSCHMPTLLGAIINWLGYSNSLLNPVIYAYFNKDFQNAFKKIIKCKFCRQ

[3] = biological target: Delta-type opioid receptor (Homo sapiens, UniProt P41143)
Chain of Delta-type opioid receptor (P41143 whole entry): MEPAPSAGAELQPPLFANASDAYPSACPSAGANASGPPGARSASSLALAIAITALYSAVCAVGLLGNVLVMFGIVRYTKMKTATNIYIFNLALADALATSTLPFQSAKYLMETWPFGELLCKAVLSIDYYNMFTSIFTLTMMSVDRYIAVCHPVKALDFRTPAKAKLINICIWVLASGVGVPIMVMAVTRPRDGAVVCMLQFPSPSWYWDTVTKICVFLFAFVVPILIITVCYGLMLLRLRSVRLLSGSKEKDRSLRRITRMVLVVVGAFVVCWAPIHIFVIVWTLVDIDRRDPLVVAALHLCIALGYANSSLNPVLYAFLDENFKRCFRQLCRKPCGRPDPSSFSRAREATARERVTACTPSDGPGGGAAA

D(1A) dopamine receptor = D(1A) dopamine receptor (Homo sapiens, UniProt P21728); format: functional, cell-based
Chain of D(1A) dopamine receptor (P21728 whole entry): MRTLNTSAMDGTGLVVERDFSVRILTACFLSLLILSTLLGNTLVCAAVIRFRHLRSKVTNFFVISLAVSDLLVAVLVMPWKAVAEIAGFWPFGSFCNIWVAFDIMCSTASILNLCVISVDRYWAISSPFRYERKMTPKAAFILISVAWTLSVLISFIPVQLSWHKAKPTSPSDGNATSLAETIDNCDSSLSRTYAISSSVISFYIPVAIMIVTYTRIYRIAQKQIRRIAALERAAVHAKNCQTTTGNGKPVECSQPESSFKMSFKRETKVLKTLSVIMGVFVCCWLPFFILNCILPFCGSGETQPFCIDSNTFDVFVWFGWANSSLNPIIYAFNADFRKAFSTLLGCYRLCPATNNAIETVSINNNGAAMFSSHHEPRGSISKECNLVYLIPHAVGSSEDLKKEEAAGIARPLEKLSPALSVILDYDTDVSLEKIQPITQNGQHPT

Adenosine receptor A2a = Adenosine receptor A2a (Homo sapiens, UniProt P29274)
Chain of Adenosine receptor A2a (P29274 whole entry): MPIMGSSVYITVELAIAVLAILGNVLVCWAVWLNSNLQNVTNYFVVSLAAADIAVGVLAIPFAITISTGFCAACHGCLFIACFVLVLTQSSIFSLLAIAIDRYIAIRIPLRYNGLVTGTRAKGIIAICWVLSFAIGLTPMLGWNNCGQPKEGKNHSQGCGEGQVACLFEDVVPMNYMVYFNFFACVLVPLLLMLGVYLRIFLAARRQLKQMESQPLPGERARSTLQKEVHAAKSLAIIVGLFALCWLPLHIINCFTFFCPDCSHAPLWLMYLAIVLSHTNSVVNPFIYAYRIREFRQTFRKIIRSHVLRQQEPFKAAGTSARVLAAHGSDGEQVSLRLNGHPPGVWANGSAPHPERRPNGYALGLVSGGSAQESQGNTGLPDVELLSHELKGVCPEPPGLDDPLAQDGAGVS

[4] = biological target: 5-hydroxytryptamine receptor 2B (Homo sapiens, UniProt P41595); format: functional, cell-based
Chain of 5-hydroxytryptamine receptor 2B (P41595 whole entry): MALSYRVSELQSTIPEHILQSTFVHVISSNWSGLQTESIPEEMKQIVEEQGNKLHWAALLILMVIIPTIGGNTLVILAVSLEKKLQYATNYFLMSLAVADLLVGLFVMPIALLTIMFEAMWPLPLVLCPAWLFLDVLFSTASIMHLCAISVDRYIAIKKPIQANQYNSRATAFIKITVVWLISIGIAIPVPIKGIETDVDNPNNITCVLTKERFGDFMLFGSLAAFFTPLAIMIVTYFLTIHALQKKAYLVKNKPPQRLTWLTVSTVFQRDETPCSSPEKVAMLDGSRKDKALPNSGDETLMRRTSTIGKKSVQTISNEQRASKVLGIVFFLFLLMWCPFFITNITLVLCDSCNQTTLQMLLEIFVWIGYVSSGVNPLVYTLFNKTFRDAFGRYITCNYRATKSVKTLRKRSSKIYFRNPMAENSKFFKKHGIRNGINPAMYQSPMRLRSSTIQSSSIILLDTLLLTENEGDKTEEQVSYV

[5] = biological target: Gamma-aminobutyric acid receptor subunit alpha-1 (Rattus norvegicus, UniProt P62813)
Chain of Gamma-aminobutyric acid receptor subunit alpha-1 (P62813 whole entry): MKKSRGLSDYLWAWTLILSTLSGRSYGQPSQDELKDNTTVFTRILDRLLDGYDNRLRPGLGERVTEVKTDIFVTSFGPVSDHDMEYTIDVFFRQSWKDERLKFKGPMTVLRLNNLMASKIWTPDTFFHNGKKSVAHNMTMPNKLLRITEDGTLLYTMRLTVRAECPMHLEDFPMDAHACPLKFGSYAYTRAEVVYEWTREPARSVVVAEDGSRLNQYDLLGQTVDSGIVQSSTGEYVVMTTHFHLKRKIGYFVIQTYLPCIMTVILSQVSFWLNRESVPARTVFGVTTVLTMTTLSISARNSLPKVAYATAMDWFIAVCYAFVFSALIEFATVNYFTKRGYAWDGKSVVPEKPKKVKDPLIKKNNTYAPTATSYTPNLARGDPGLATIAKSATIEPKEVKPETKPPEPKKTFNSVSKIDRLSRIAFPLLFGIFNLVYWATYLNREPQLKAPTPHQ

Histamine H2 receptor = Histamine H2 receptor (Homo sapiens, UniProt P25021); format: functional, cell-based
Chain of Histamine H2 receptor (P25021 whole entry): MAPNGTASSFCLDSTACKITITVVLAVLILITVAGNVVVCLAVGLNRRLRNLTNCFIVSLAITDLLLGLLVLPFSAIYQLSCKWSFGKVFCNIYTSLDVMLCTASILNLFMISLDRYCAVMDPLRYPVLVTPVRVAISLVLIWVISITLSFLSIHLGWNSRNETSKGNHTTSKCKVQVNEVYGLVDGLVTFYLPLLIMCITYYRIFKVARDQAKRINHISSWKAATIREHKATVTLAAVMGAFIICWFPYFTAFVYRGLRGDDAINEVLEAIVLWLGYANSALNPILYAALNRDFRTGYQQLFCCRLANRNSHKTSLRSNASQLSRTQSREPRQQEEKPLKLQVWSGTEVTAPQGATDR

Thromboxane A2 receptor = biological target: T2, Thromboxane A2 receptor (Homo sapiens, UniProt P21731)
T2 sequence (P21731 whole entry): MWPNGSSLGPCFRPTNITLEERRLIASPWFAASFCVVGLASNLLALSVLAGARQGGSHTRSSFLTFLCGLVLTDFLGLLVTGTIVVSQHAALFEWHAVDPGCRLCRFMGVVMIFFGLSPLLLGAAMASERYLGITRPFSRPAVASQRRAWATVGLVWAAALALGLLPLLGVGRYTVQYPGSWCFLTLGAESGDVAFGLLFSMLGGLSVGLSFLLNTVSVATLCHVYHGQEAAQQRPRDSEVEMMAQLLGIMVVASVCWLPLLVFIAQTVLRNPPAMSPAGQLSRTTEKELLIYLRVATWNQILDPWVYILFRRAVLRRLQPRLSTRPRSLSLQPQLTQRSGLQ

[6] = biological target: T3, 5-hydroxytryptamine receptor 2C (Homo sapiens, UniProt P28335)
T3 sequence (P28335 whole entry): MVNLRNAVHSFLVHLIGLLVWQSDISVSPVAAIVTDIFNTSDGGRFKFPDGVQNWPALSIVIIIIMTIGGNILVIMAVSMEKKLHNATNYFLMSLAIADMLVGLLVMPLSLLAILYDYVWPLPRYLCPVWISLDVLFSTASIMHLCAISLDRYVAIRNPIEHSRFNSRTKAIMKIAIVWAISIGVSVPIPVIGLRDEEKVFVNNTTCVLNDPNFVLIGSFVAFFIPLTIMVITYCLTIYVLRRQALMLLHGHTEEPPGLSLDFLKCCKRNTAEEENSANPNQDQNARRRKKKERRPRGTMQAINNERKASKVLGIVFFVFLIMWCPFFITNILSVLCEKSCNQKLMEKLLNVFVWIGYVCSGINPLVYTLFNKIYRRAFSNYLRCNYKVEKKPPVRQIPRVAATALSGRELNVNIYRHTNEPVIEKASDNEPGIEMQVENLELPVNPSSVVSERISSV

[7] = biological target: Glutamate receptor ionotropic, NMDA 1 (Rattus norvegicus, UniProt P35439)
[8] = biological target: T4, Gastrin/cholecystokinin type B receptor (Homo sapiens, UniProt P32239)
T4 sequence (P32239 whole entry): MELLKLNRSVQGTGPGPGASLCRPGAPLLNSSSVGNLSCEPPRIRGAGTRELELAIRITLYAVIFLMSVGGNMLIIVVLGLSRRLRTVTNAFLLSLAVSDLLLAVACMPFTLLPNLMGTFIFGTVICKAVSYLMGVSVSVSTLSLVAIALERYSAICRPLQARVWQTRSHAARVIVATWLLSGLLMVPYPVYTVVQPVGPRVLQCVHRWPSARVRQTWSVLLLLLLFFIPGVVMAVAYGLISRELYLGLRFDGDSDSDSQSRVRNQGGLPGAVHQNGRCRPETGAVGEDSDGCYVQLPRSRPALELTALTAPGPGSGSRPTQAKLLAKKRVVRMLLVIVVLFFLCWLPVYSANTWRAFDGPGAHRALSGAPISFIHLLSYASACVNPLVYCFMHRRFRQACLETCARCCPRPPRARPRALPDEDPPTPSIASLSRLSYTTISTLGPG

[9] = biological target: T5, Alpha-1A adrenergic receptor (Homo sapiens, UniProt P35348); format: functional, cell-based
T5 sequence (P35348 whole entry): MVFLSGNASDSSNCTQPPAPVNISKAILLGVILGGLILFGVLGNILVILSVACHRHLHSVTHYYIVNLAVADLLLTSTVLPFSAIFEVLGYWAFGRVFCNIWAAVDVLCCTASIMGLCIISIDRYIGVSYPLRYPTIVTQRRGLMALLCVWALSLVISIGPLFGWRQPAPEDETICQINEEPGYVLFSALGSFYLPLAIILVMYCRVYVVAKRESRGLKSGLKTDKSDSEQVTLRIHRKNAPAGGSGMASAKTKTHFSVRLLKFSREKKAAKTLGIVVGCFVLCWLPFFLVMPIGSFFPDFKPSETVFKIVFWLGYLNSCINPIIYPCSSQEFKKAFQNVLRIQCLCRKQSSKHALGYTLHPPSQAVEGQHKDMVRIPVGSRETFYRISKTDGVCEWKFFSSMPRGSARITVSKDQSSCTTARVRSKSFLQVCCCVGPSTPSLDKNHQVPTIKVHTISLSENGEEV

[10] = biological target: T5, Alpha-1A adrenergic receptor; format: functional, cell-based; remark: listed apart in the source
[11] = biological target: T5, Alpha-1A adrenergic receptor; format: functional, cell-based; remark: listed apart in the source
[12] = biological target: Beta-2 adrenergic receptor (Homo sapiens, UniProt P07550); format: functional, cell-based
Chain of Beta-2 adrenergic receptor (P07550 whole entry): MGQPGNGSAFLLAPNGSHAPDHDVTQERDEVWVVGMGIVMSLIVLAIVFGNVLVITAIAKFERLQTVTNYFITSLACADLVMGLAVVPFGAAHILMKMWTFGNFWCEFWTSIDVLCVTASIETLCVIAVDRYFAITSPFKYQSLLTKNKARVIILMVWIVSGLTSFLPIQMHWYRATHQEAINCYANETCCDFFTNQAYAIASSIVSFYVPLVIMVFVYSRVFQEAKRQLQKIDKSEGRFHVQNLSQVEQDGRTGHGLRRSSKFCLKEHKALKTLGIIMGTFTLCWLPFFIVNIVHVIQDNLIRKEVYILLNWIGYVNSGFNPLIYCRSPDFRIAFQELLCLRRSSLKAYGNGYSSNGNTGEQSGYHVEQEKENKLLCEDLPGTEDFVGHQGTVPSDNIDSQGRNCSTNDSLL
Also: assay procedure not described here.

Chain of Sodium-dependent dopamine transporter (Q01959 whole entry): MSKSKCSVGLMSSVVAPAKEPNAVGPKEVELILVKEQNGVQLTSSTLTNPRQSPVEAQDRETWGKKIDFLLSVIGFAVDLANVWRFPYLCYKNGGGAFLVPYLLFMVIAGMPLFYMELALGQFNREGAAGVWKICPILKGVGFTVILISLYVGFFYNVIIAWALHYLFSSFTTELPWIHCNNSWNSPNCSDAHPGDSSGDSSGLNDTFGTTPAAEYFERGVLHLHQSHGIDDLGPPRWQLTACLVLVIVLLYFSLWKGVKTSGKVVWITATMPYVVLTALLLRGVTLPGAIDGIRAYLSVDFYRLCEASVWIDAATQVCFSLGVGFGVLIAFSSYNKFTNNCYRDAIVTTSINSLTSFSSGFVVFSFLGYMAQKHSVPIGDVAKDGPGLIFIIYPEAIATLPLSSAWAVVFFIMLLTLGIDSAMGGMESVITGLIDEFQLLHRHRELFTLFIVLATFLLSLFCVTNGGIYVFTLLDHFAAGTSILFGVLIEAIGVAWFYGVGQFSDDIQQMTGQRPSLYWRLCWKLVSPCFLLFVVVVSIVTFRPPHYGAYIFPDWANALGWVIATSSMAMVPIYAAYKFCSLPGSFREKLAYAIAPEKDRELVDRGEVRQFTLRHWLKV
Chain of Mu-type opioid receptor (P35372 whole entry): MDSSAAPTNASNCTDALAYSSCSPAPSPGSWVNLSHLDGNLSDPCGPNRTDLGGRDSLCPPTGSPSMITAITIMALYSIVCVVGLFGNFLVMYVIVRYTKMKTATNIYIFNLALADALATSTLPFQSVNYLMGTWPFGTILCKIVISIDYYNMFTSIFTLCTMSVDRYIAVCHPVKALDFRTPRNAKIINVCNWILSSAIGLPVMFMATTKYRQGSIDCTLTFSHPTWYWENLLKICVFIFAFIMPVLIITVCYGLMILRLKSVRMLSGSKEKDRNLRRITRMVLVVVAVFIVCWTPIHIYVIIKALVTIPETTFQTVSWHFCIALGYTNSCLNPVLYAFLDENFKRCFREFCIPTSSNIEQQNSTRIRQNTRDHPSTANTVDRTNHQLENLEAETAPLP

AC50 [1]	AC50 [2]	AC50 [3]	AC50 (D(1A) dopamine receptor)	AC50 (Adenosine receptor A2a)	AC50 [5]	AC50 (Histamine H2 receptor)	AC50 (Thromboxane A2 receptor)	AC50 [7]	SMILES	AC50 [11]	other results
> 10 µM	> 10 µM	> 30 µM	> 10 µM	> 10 µM	> 10 µM	> 10 µM	> 10 µM	> 10 µM	CCCc1cc(=O)[nH]c(=S)[nH]1 [PROPYLTHIOURACIL]	–	AC50 (Mu-type opioid receptor): > 30 µM; AC50 [4]: > 10 µM; AC50 [6]: > 30 µM
> 30 µM	> 30 µM	> 30 µM	> 30 µM	> 30 µM	> 30 µM	> 30 µM	> 30 µM	> 30 µM	CN(CCOc1ccc(CC2SC(=O)NC2=O)cc1)c1ccccn1 (stereo not given) [ROSIGLITAZONE]	–	AC50 (Mu-type opioid receptor): > 10 µM; AC50 [8]: > 30 µM; AC50 [4]: 14 µM; AC50 [9]: > 30 µM; AC50 [6]: > 30 µM; AC50 [10]: 11 µM
–	–	–	–	–	–	–	–	–	C[Se]CC[C@H](N)C(=O)O [SELENOMETHIONINE]	> 30 µM	–
–	–	–	–	–	–	–	–	–	Cc1ccsc1C(=CCCN1CCC[C@@H](C(=O)O)C1)c1sccc1C [TIAGABINE]	> 30 µM	–
–	–	–	–	–	–	–	–	–	Cc1ccc(C(=O)c2ccc(CC(=O)O)n2C)cc1 [TOLMETIN]	> 30 µM	–
–	–	–	–	–	–	–	–	–	Cc1ccccc1C(=O)Nc1ccc(C(=O)N2CCCC(O)c3cc(Cl)ccc32)c(C)c1 (stereo not given) [TOLVAPTAN]	> 30 µM	–
–	–	–	–	–	–	–	–	–	C[C@]12C=CC(=O)C=C1CC[C@H]1[C@@H]3C[C@@H](O)[C@](O)(C(=O)CO)[C@@]3(C)C[C@H](O)[C@@]12F [TRIAMCINOLONE]	> 30 µM	–
–	–	–	–	–	–	–	–	–	CC[C@]12CCCN3CCc4c(n(c5ccccc45)[C@@](O)(C(=O)OC)C1)[C@@H]32 [VINCAMINE]	> 30 µM	–
–	–	–	–	–	–	–	–	–	CCC1=C[C@@H]2CN(C1)Cc1c([nH]c3ccccc13)[C@@](C(=O)OC)(c1cc3c(cc1OC)N(C)[C@H]1[C@@](O)(C(=O)OC)[C@H](OC(C)=O)[C@]4(CC)C=CCN5CC[C@]31[C@@H]54)C2 [VINORELBINE]	> 30 µM	–
> 10 µM	> 10 µM	> 30 µM	> 10 µM	> 30 µM	> 10 µM	> 10 µM	> 10 µM	> 10 µM	COc1cc(C(=O)NS(=O)(=O)c2ccccc2C)ccc1Cc1cn(C)c2ccc(NC(=O)OC3CCCC3)cc12 [ZAFIRLUKAST]	–	AC50 (Mu-type opioid receptor): > 30 µM; AC50 [9]: > 30 µM; AC50 [10]: 5.9 µM

SMILES	AC50 [1]	AC50 [2]	AC50 [3]	AC50 (D(1A) dopamine receptor)	AC50 (Adenosine receptor A2a)	AC50 [5]	AC50 (Histamine H2 receptor)	AC50 (Thromboxane A2 receptor)	AC50 [7]	AC50 [11]	other results
CC(C)C[C@H](NC(=O)[C@@H](O)[C@H](N)Cc1ccccc1)C(=O)O [UBENIMEX]	> 30 µM	> 30 µM	> 30 µM	> 30 µM	> 30 µM	> 30 µM	> 30 µM	> 30 µM	> 30 µM	–	AC50 [12]: > 30 µM; AC50 [4]: > 30 µM; AC50 [9]: > 30 µM; AC50 [6]: > 30 µM; AC50 [10]: > 30 µM
